In the NIST ThermoML archive (doi:10.1021/acs.jced.6b00483):
“And” between values parts separate entries of the source, which are not always exact repeats. Equal values may be shown once.

How the values were obtained:
[1] = DSC
[2] = molar heat capacity at constant pressure; conditions: 101.33 kPa, Crystal 3, DSC
[3] = Molar enthalpy of transition or fusion; conditions: Crystal 3; DSC

NC(N)=C([N+](=O)[O-])[N+](=O)[O-] [1,1-diamino-2,2-dinitroethene]
Conditions | Triple point temperature [K] | molar heat capacity at constant pressure [J/K/mol]
[1], Crystal 2 | 439.2 | –
[1], Crystal 3 | 393.7 | –
[2], 345 K | – | 191.17
[2], 350 K | – | 193.24
[2], 355 K | – | 195.17
[2], 360 K | – | 197.24
[2], 365 K | – | 199.16
[2], 370 K | – | 201.24
[2], 375 K | – | 203.16
[2], 380 K | – | 205.09
[2], 385 K | – | 207.16

Conditions | Molar enthalpy of transition or fusion
[3] | 0.623 kcal/mol and 0.676 kcal/mol
